According to PMC2725296, “Interrogating and Predicting Tolerated Sequence Diversity in Protein Folds: Application to E. elaterium Trypsin Inhibitor-II Cystine-Knot Miniprotein” (PLoS Computational Biology, 2009):
pKd: −log10 of the molar value. Each block holds one substance with its values, some of them ahead of it. No end group written: not given here.

What was measured:
trypsin [1] = experiment: trypsin binding of individual yeast-displayed EETI loop 3 clones by dual-color flow cytometry; conditions: triplicate; for trypsin binding level relative to EETIwt (fold higher) / trypsin binding level as percentage of EETIwt: adjusted for expression (cMyc), normalized to EETIwt; for trypsin binding level relative to EETIwt (fold higher): single-factor ANOVA p<0.05 vs EETIwt; for statistical significance of trypsin binding level over the highest-binding randomly-generated clone: single-factor ANOVA (p<0.02), 25 nM trypsin
From the text: In addition, we also constructed twenty-five clones where EETI loop 3 was replaced by a randomly-generated nine-amino acid sequence (Table S2). Plasmids containing DNA encoding for predicted and randomly-generated clones were transformed into yeast and induced for expression on the yeast cell surface as described above. Next, we analyzed the predicted and randomly-generated EETI loop 3 clones by dual-color flow cytometry for yeast cell surface expression and binding to fluorescent trypsin, indicating retention of the knottin fold (Figure 8). […] Overall, the least-similar predicted clones also bound trypsin, but not as well as the motif-filtered clones, as expected. The small differences in trypsin binding levels of six of the least-similar predicted clones as compared to EETIwt were deemed statistically insignificant, based on single-factor ANOVA (p<0.05). […] Even the best randomly-generated clone only bound trypsin at 16% of the wild-type EETI trypsin binding level. The successful prediction of nine-amino acid sequences that can be substituted into EETI loop 3 without disrupting the knottin fold highlights the potential of this combinatorial approach for rational protein engineering applications.
Figure 8 Trypsin-binding levels of EETI loop 3 predicted and randomly-generated clones. […] Predicted clones are preceded with a ‘p’ while randomly-generated clones are preceded with an ‘r.’ Protein expression levels were quantified by immunofluorescence staining of the cMyc epitope tag. Retention of the knottin fold was determined by binding of fluorescently-labeled trypsin (25 nM). Trypsin binding levels were adjusted to account for differences in protein expression levels and then normalized to the trypsin-binding level of EETIwt. Trypsin-binding experiments were performed in triplicate and error bars denote standard deviations.
YPD media contained 20 g/L dextrose, 20 g/L peptone, and 10 g/L yeast extract. Selective SD-CAA media contained 20 g/L dextrose, 6.7 g/L yeast nitrogen base without amino acids, 5.4 g/L Na2HPO4, 8.6 g/L NaH2PO4⋅H2O, and 5 g/L Bacto casamino acids. Selective SD-CAA plates were of the same composition as the liquid media except with the addition of 182 g/L sorbitol and 15 g/L agar. SG-CAA media was identical to the SD-CAA media except dextrose was replaced with galactose. PBSA was composed of phosphate buffered saline containing 1 g/L bovine serum albumin. Lyophilized trypsin was purchased from Sigma Aldrich and fluorescently labeled with Alexa Fluor 488 tetrafluorophenyl ester (Invitrogen). Mouse anti-cMyc antibody was purchased from Covance and goat anti-mouse antibody conjugated to R-phycoerythrin was purchased from Sigma Aldrich.
Four rounds of FACS were performed on each EETI loop-substituted library to obtain an enriched pool of trypsin-binding clones. Libraries of yeast clones induced for protein expression were suspended in PBSA with mouse anti-cMyc monoclonal antibody (1∶50 dilution) and incubated for 1 h at room temperature. Yeast were pelleted by centrifugation at 4,000 rpm for 5 min, the supernatant was aspirated, and cells were washed with ice-cold PBSA. Washed yeast libraries were resuspended in PBSA with goat anti-mouse R-phycoerythrin secondary antibody (1∶25 dilution) and Alexa 488-labeled trypsin and incubated on ice in the dark for 30 min. […] Collected library clones were propagated in SD-CAA media with penicillin-streptomycin (400 µg/mL), induced for protein expression in SG-CAA media and subjected to three additional rounds of sorting. For the first round of sorting, approximately 2×10^7 yeast were sorted from each library, and at least 10 times the number of collected yeast were sorted in each subsequent round to decrease the probability of losing unique clones. Sort stringency was increased by gradually decreasing the concentration of Alexa488-labeled trypsin from 200 nM in the first round to 25 nM in the fourth round. […]

trypsin [2] = experiment: equilibrium binding of fluorescently-labeled trypsin to yeast-displayed EETIwt (flow cytometry); conditions: data not shown
From the text: We measured cell surface expression levels of the EETIwt fusion protein by flow cytometry, after staining yeast cells with a primary antibody against a C-terminal cMyc epitope tag followed by the addition of a fluorescently-labeled secondary antibody. […] (Figure 2).
Figure 2 Yeast surface display of EETI knottins and isolation of properly folded EETI loop-substituted clones. […] Density plots depict protein expression (x-axis) versus trypsin binding (y-axis) for enriched pools of loop-substituted clones after four rounds of sorting. […] (C) The progression of enrichment for properly folded EETI loop-substituted variants was monitored by flow cytometry and quantified by trypsin binding levels (at 25 nM), normalized for differences in protein expression levels. Unsorted libraries (white), libraries after two rounds of sorting (light grey), and libraries after four rounds of sorting (dark grey), as compared to EETIwt (striped). Trypsin-binding experiments were performed in triplicate and error bars denote standard deviations.
YPD media contained 20 g/L dextrose, 20 g/L peptone, and 10 g/L yeast extract. Selective SD-CAA media contained 20 g/L dextrose, 6.7 g/L yeast nitrogen base without amino acids, 5.4 g/L Na2HPO4, 8.6 g/L NaH2PO4⋅H2O, and 5 g/L Bacto casamino acids. […]

[3] = 25 nM fluorescently-labeled trypsin

Substance: RRNRKTLGY (disulfide) [p9, motif-filtered predicted EETI loop 3 clone, …]
trypsin binding level relative to EETIwt (fold higher) (trypsin [1]; [3]): roughly 1.5 -fold

Substance: NRNRRRTGY (disulfide (positions not given here)) [p1, motif-filtered predicted EETI loop 3 clone, …]
trypsin binding level relative to EETIwt (fold higher) (trypsin [1]; [3]): roughly 1.5 -fold

Substance: Ecballium elaterium trypsin inhibitor II [EETIwt]
pKd (trypsin [2]; Alexa Fluor 488-labeled trypsin, read-out: approximate equilibrium binding constant): ~7.60
trypsin binding specificity, in words (trypsin [2]; fluorescently-labeled trypsin): bound specifically

Substance: NRNRKTPGY (disulfide (positions not given here)) [p3, motif-filtered predicted EETI loop 3 clone, …]
trypsin binding level as percentage of EETIwt (trypsin [1]; [3]): approximately 70%

The next lines start with results.

trypsin binding level as percentage of EETIwt (trypsin [1]; [3]): < 5%
trypsin binding, in words (trypsin [1]; 25 nM fluorescently-labeled trypsin, yeast surface display): does not bind trypsin
Substance: potato carboxypeptidase inhibitor: a knottin that does not bind trypsin; negative control (QQHADPICNKPCKTHDDCSGAWFCQACWNSARTCGPYVG; ends and bridges not checked; cysteine pairing not given here; UniProt P01075 1-39, looked up) [reference compound]

trypsin binding level as percentage of EETIwt (trypsin [1]; [3]): approximately 30%
Substance: NTTNNSPGY (disulfide (positions not given here)) [p25, least-similar predicted EETI loop 3 clone, …]
statistical significance of trypsin binding level over the highest-binding randomly-generated clone (trypsin [1]): statistically significant over the highest-binding randomly-generated clone

trypsin binding level as percentage of EETIwt (trypsin [1]; [3]): approximately 30%
Substance: NNTNTGRGY (disulfide (positions not given here)) [p20, least-similar predicted EETI loop 3 clone, …]
statistical significance of trypsin binding level over the highest-binding randomly-generated clone (trypsin [1]): statistically significant over the highest-binding randomly-generated clone
